A short description of this data set: Au(I)-mediated imine macrocyclisation: N-terminal amine adds (Markovnikov) to N-propargyl backbone amide alkyne; JohnPhosAu(MeCN)SbF6 2 equiv, Et4NBr 16 equiv; in situ NaBH4 10 equiv reduction 15 min for quantification. The conditions noted are these: 24-membered ring, DMF, 8.0 mM, 37.0 °C.

Consider `CC(C)C[C@@H]1NC(=O)CNC(=O)[C@H](Cc2ccccc2)NC(C)CN([C@@H](CC(=O)O)C(N)=O)C(=O)CNC(=O)[C@H](C)NC(=O)[C@H](CCCNC(=N)N)NC(=O)[C@H](Cc2ccc(O)cc2)NC1=O` (stereo partly drawn) [H-Phe-Gly-Leu-Tyr-Arg-Ala-Gly-(N-propargyl)Asp-NH2], for which, for the setting “from C#CCN(C(=O)CNC(=O)[C@H](C)NC(=O)[C@H](CCCNC(=N)N)NC(=O)[C@H](Cc1ccc(O)cc1)NC(=O)[C@H](CC(C)C)NC(=O)CNC(=O)[C@@H](N)Cc1ccccc1)[C@@H](CC(=O)O)C(N)=O, 1.0 h”, the ring closure, conversion by HPLC is 56%.

`CC(C)C[C@@H]1NC(=O)CNC(=O)[C@H](Cc2ccccc2)NC(C)CN(CC(N)=O)C(=O)CNC(=O)[C@H](C)NC(=O)[C@H](CCCNC(=N)N)NC(=O)[C@H](Cc2ccc(O)cc2)NC1=O` (stereo partly drawn) [H-Phe-Gly-Leu-Tyr-Arg-Ala-Gly-(N-propargyl)Gly-NH2]: the ring closure, conversion by HPLC (from C#CCN(CC(N)=O)C(=O)CNC(=O)[C@H](C)NC(=O)[C@H](CCCNC(=N)N)NC(=O)[C@H](Cc1ccc(O)cc1)NC(=O)[C@H](CC(C)C)NC(=O)CNC(=O)[C@@H](N)Cc1ccccc1, 0.5 h) turned out to be 85%.

Regarding `CC[C@H](C)[C@@H](C(N)=O)N1CC(C)N[C@@H](Cc2ccccc2)C(=O)NCC(=O)N[C@@H](CC(C)C)C(=O)N[C@@H](Cc2ccc(O)cc2)C(=O)N[C@@H](CCCNC(=N)N)C(=O)N[C@@H](C)C(=O)NCC1=O` (stereo partly drawn) [H-Phe-Gly-Leu-Tyr-Arg-Ala-Gly-(N-propargyl)Ile-NH2], the ring closure, conversion by HPLC (from C#CCN(C(=O)CNC(=O)[C@H](C)NC(=O)[C@H](CCCNC(=N)N)NC(=O)[C@H](Cc1ccc(O)cc1)NC(=O)[C@H](CC(C)C)NC(=O)CNC(=O)[C@@H](N)Cc1ccccc1)[C@H](C(N)=O)[C@@H](C)CC, 1.0 h) was determined as 85%.

Consider `CC(C)C[C@@H]1NC(=O)CNC(=O)[C@H](Cc2ccccc2)NC(C)CN([C@@H](Cc2ccccc2)C(N)=O)C(=O)CNC(=O)[C@H](C)NC(=O)[C@H](CCCNC(=N)N)NC(=O)[C@H](Cc2ccc(O)cc2)NC1=O` (stereo partly drawn) [H-Phe-Gly-Leu-Tyr-Arg-Ala-Gly-(N-propargyl)Phe-NH2], for which the ring closure, conversion by HPLC (from C#CCN(C(=O)CNC(=O)[C@H](C)NC(=O)[C@H](CCCNC(=N)N)NC(=O)[C@H](Cc1ccc(O)cc1)NC(=O)[C@H](CC(C)C)NC(=O)CNC(=O)[C@@H](N)Cc1ccccc1)[C@@H](Cc1ccccc1)C(N)=O, 1.0 h) came to 88%.

For the compound `CC[C@H](C)[C@@H]1NC(=O)[C@H](C)NC(=O)[C@H](CCCNC(=N)N)NC(=O)[C@H](Cc2ccc(O)cc2)NC(=O)[C@H](CC(C)C)NC(=O)CNC(=O)[C@H](Cc2ccccc2)NC(C)CN(CC(N)=O)C1=O` (stereo partly drawn) [H-Phe-Gly-Leu-Tyr-Arg-Ala-Ile-(N-propargyl)Gly-NH2], where the note is “from C#CCN(CC(N)=O)C(=O)[C@@H](NC(=O)[C@H](C)NC(=O)[C@H](CCCNC(=N)N)NC(=O)[C@H](Cc1ccc(O)cc1)NC(=O)[C@H](CC(C)C)NC(=O)CNC(=O)[C@@H](N)Cc1ccccc1)[C@@H](C)CC, 1.0 h”, the ring closure, conversion by HPLC worked out at 89%.

In the case of `CC(C)C[C@@H]1NC(=O)CNC(=O)[C@H](Cc2ccccc2)NC(C)CN(CC(N)=O)C(=O)[C@H](CO)NC(=O)[C@H](C)NC(=O)[C@H](CCCNC(=N)N)NC(=O)[C@H](Cc2ccc(O)cc2)NC1=O` (stereo partly drawn) [H-Phe-Gly-Leu-Tyr-Arg-Ala-Ser-(N-propargyl)Gly-NH2], for the setting “from C#CCN(CC(N)=O)C(=O)[C@H](CO)NC(=O)[C@H](C)NC(=O)[C@H](CCCNC(=N)N)NC(=O)[C@H](Cc1ccc(O)cc1)NC(=O)[C@H](CC(C)C)NC(=O)CNC(=O)[C@@H](N)Cc1ccccc1, 1.0 h”, the ring closure, conversion by HPLC is 64%.

On to `CC(C)C[C@@H]1NC(=O)CNC(=O)[C@H](Cc2ccccc2)NC(C)CN(CC(N)=O)C(=O)CNC(=O)[C@H](C)NC(=O)[C@H](CC(=O)O)NC(=O)[C@H](Cc2ccc(O)cc2)NC1=O` (stereo partly drawn) [H-Phe-Gly-Leu-Tyr-Asp-Ala-Gly-(N-propargyl)Gly-NH2], for which the ring closure, conversion by HPLC (from C#CCN(CC(N)=O)C(=O)CNC(=O)[C@H](C)NC(=O)[C@H](CC(=O)O)NC(=O)[C@H](Cc1ccc(O)cc1)NC(=O)[C@H](CC(C)C)NC(=O)CNC(=O)[C@@H](N)Cc1ccccc1, 1.0 h) was 82%.

Turning to `CC(C)C[C@@H]1NC(=O)CNC(=O)[C@H](Cc2ccccc2)NC(C)CN(CC(N)=O)C(=O)CNC(=O)[C@H](C)NC(=O)[C@H](CCC(N)=O)NC(=O)[C@H](Cc2ccc(O)cc2)NC1=O` (stereo partly drawn) [H-Phe-Gly-Leu-Tyr-Gln-Ala-Gly-(N-propargyl)Gly-NH2], the ring closure, conversion by HPLC (from C#CCN(CC(N)=O)C(=O)CNC(=O)[C@H](C)NC(=O)[C@H](CCC(N)=O)NC(=O)[C@H](Cc1ccc(O)cc1)NC(=O)[C@H](CC(C)C)NC(=O)CNC(=O)[C@@H](N)Cc1ccccc1, 1.0 h) stood at 64%.

As to `CC(C)C[C@@H]1NC(=O)CNC(=O)[C@H](Cc2ccccc2)NC(C)CN(CC(N)=O)C(=O)CNC(=O)[C@H](C)NC(=O)[C@H](CCC(=O)O)NC(=O)[C@H](Cc2ccc(O)cc2)NC1=O` (stereo partly drawn) [H-Phe-Gly-Leu-Tyr-Glu-Ala-Gly-(N-propargyl)Gly-NH2], the ring closure, conversion by HPLC (from C#CCN(CC(N)=O)C(=O)CNC(=O)[C@H](C)NC(=O)[C@H](CCC(=O)O)NC(=O)[C@H](Cc1ccc(O)cc1)NC(=O)[C@H](CC(C)C)NC(=O)CNC(=O)[C@@H](N)Cc1ccccc1, 1.0 h) is 83%.

For `CC(C)C[C@@H]1NC(=O)CNC(=O)[C@H](Cc2ccccc2)NC(C)CN(CC(N)=O)C(=O)CNC(=O)[C@H](C)NC(=O)[C@H](Cc2c[nH]cn2)NC(=O)[C@H](Cc2ccc(O)cc2)NC1=O` (stereo partly drawn) [H-Phe-Gly-Leu-Tyr-His-Ala-Gly-(N-propargyl)Gly-NH2], the ring closure, conversion by HPLC (from C#CCN(CC(N)=O)C(=O)CNC(=O)[C@H](C)NC(=O)[C@H](Cc1c[nH]cn1)NC(=O)[C@H](Cc1ccc(O)cc1)NC(=O)[C@H](CC(C)C)NC(=O)CNC(=O)[C@@H](N)Cc1ccccc1, 1.0 h) turned out to be 57%.

Regarding `CC(C)C[C@@H]1NC(=O)CNC(=O)[C@H](Cc2ccccc2)NC(C)CN(CC(N)=O)C(=O)CNC(=O)[C@H](C)NC(=O)[C@@H]2CCCN2C(=O)[C@H](Cc2ccc(O)cc2)NC1=O` (stereo partly drawn) [H-Phe-Gly-Leu-Tyr-Pro-Ala-Gly-(N-propargyl)Gly-NH2], the ring closure, conversion by HPLC (from C#CCN(CC(N)=O)C(=O)CNC(=O)[C@H](C)NC(=O)[C@@H]1CCCN1C(=O)[C@H](Cc1ccc(O)cc1)NC(=O)[C@H](CC(C)C)NC(=O)CNC(=O)[C@@H](N)Cc1ccccc1, 1.0 h) turned out to be 77%.

Source of the values: publication PMC8949771, “Gold(I)-Mediated Rapid Cyclization of Propargylated Peptides via Imine Formation” (Journal of the American Chemical Society, 2022).
